Source: patent US9593110B2, “Neprilysin inhibitors” (Theravence Biopharma R&D IP, LLC, priority 2014, dated 2017)

Molecular target: human NEP (Homo sapiens (Human), UniProt P08473)
Test: In vitro enzyme inhibition assay at human NEP
Conditions: pKi, recombinant human NEP, fluorogenic peptide substrate, 37° C.
Procedure: The inhibitory activities of compounds at human and rat neprilysin (EC 3.4.24.11; NEP) and human angiotensin converting enzyme (ACE) were determined using in vitro assays as described below.
The assays were performed in 384-well white opaque plates at 37° C. using the fluorogenic peptide substrates at a concentration of 10 μM in Assay Buffer (NEP: 50 mM HEPES, pH 7.5, 100 mM NaCl, 0.01% polyethylene glycol sorbitan monolaurate (Tween-20), 10 μM ZnSO4; ACE: 50 mM HEPES, pH 7.5, 100 mM NaCl, 0.01% Tween-20, 1 μM ZnSO4).
Test compounds were assayed over the range of concentrations from 10 μM to 20 pM. Test compounds were added to the enzymes and incubated for 30 minute at 37° C. prior to initiating the reaction by the addition of substrate.
Plates were read on a fluorometer with excitation and emission wavelengths set to 320 nm and 405 nm, respectively Inhibition constants were obtained by nonlinear regression of the data using the equation (GraphPad Software, Inc., San Diego, Calif.): v=v0/[1+(I/K′)] where v is the reaction rate, v0 is the uninhibited reaction rate, I is the inhibitor concentration and K′ is the apparent inhibition constant.

Chain of human NEP (P08473 52-750): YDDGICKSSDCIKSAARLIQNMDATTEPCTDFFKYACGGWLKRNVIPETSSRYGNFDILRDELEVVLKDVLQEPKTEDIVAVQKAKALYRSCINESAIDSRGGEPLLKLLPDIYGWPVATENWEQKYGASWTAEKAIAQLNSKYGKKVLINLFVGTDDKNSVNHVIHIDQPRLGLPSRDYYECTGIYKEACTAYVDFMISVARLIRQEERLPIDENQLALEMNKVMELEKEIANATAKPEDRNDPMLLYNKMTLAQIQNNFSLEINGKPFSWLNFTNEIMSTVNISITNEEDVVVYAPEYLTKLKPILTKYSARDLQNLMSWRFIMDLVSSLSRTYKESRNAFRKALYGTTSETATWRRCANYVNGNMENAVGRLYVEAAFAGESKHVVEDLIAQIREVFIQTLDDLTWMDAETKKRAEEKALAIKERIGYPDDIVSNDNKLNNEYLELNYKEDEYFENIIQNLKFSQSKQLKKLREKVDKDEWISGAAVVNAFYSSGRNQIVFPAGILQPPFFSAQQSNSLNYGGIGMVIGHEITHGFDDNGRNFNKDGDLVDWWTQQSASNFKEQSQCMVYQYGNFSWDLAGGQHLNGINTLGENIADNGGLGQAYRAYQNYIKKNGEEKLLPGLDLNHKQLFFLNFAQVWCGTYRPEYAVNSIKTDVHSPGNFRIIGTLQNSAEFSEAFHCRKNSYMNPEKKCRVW

Row | Ki | Structure (SMILES)
1 | 1.26 to 3.16 nM | CNCC(=O)N[C@H](C[C@@H](Cc1ccc(-c2cc(Cl)ccc2F)cc1)NC(=O)c1cnn[nH]1)C(=O)O [Example 65, (2R,4R)-5-(5′-Chloro-2′-fluorobiphenyl-4-yl)-2-(2-methylaminoacetylamino)-4-[(3H-[1,2,3]triazole-4-carbonyl)amino]pentanoic Acid]
2 | ≤ 1 nM | COC1CN(C[C@H](C[C@@H](Cc2ccc(-c3cc(Cl)ccc3F)cc2)NC(=O)c2c[nH]nn2)C(=O)O)C1 [Example 102b, (2S,4S)-5-(5′-Chloro-2′-fluorobiphenyl-4-yl)-2-(3-methoxyazetidin-1-ylmethyl)-4-[(1H-[1,2,3]triazole-4-carbonyl)amino]pentanoic Acid]
3 | 1.26 to 3.16 nM | NC[C@H](C[C@@H](Cc1ccc(-c2cc(Cl)ccc2F)cc1)NC(=O)c1coc(C2CC2)n1)C(=O)O [Example 21-2, (2S,4S)-2-Aminomethyl-5-(5′-chloro-2′-fluorobiphenyl-4-yl)-4-[(2-cyclopropyl-oxazole-4-carbonyl)amino]pentanoic acid]
4 | 1.26 to 3.16 nM | NC(=O)C[C@@H](C[C@@H](Cc1ccc(-c2cccc(F)c2)cc1)NC(=O)c1cnn[nH]1)C(=O)O [Example 54, (2R,4S)-2-Carbamoylmethyl-5-(3′-fluorobiphenyl-4-yl)-4-[(3H-[1,2,3]triazole-4-carbonyl)amino]pentanoic Acid]
5 | ≤ 1 nM | COCCN[C@H](C[C@@H](Cc1ccc(-c2cc(Cl)ccc2F)cc1)NC(=O)c1c[nH]nn1)C(=O)O [Example 98a, (2R,4R)-5-(5′-Chloro-2′-fluorobiphenyl-4-yl)-2-(2-methoxyethylamino)-4-[(1H-[1,2,3]triazole-4-carbonyl)amino]pentanoic Acid]
6 | 1.26 to 3.16 nM | N#CC[C@H](C[C@@H](Cc1ccc(-c2cc(Cl)ccc2F)cc1)NC(=O)c1c[nH]nn1)C(=O)O [Example 51, (2S,4S)-5-(5′-chloro-2′-fluorobiphenyl-4-yl)-2-cyanomethyl-4-[(3H-[1,2,3]triazole-4-carbonyl)amino]pentanoic acid]
7 | 1.26 to 3.16 nM | CN(CCO)C[C@H](C[C@@H](Cc1ccc(-c2cc(Cl)ccc2F)cc1)NC(=O)c1c[nH]nn1)C(=O)O [Example 106, (2S,4S)-5-(5′-Chloro-2′-fluorobiphenyl-4-yl)-2-{[(2-hydroxyethyl)-methylamino]methyl}-4-[(1H-[1,2,3]triazole-4-carbonyl)amino]pentanoic Acid]
8 | 1.26 to 3.16 nM | O=C(N[C@H](Cc1ccc(-c2cc(Cl)ccc2F)cc1)C[C@@H](CN1CCOCC1)C(=O)O)c1c[nH]nn1 [Example 69a, (2S,4S)-5-(5′-Chloro-2′-fluorobiphenyl-4-yl)-2-morpholin-4-ylmethyl-4-[(1H-[1,2,3]triazole-4-carbonyl)amino]pentanoic Acid]
9 | ≤ 1 nM | O=C(N[C@H](Cc1ccc(-c2cc(Cl)ccc2F)cc1)C[C@@H](CNCC(F)F)C(=O)O)c1cnn[nH]1 [Example 82a, (2S,4S)-5-(5′-Chloro-2′-fluorobiphenyl-4-yl)-2-[(2,2-difluoroethylamino)methyl]-4-[(3H-[1,2,3]triazole-4-carbonyl)amino]pentanoic Acid]
10 | 1.26 to 3.16 nM | CC(C)c1coc(C(=O)N[C@H](Cc2ccc(-c3cc(Cl)ccc3F)cc2)C[C@@H](NC(=O)[C@@H](C)N)C(=O)O)n1 [Example 36-2, (2R,4R)-2-((R)-2-Aminopropionylamino)-5-(5′-chloro-2′-fluorobiphenyl-4-yl)-4-[(4-isopropy-oxazole-2-carbonyl)-amino]pentanoic Acid]
11 | 1.26 to 3.16 nM | CCOc1nc(C(=O)N[C@H](Cc2ccc(-c3cc(Cl)ccc3F)cc2)C[C@@H](CN)C(=O)O)co1 [Example 21-4, (2S,4S)-2-Aminomethyl-5-(5′-chloro-2′-fluorobiphenyl-4-yl)-4-[(2-ethoxy-oxazole-4-carbonyl)amino]pentanoic acid]
12 | ≤ 1 nM | O=C(N[C@H](Cc1ccc(-c2cc(Cl)ccc2F)cc1)C[C@@H](CN1CC(O)C1)C(=O)O)c1cnn[nH]1 [Example 83b, (2S,4S)-5-(5′-Chloro-2′-fluorobiphenyl-4-yl)-2-(3-hydroxyazetidin-1-ylmethyl)-4-[(3H-[1,2,3]triazole-4-carbonyl)amino]pentanoic Acid]
13 | 1.26 to 3.16 nM | CC(C)c1coc(C(=O)N[C@H](Cc2ccc(-c3cc(Cl)ccc3F)cc2)C[C@@H](NC(=O)[C@@H](N)C(C)C)C(=O)O)n1 [Example 38-2, (2R,4R)-2-((S)-2-Amino-3-methylbutyrylamino)-5-(5′-chloro-2′-fluorobiphenyl-4-yl)-4-[(4-isopropyloxazole-2-carbonyl)-amino]pentanoic Acid]
14 | ≤ 1 nM | COCCCN[C@H](C[C@@H](Cc1ccc(-c2cc(Cl)ccc2F)cc1)NC(=O)c1c[nH]nn1)C(=O)O [Example 97a]
15 | 3.16 to 10 nM | O=C(N[C@H](Cc1ccc(-c2cc(Cl)ccc2F)cc1)C[C@@H](CNCCF)C(=O)O)c1cnn[nH]1 [Example 81, (2S,4S)-5-(5′-Chloro-2′-fluorobiphenyl-4-yl)-2-[(2-fluoroethylamino)methyl]-4-[(3H-[1,2,3]triazole-4-carbonyl)amino]pentanoic Acid]
16 | ≤ 1 nM | O=C(N[C@H](Cc1ccc(-c2cc(Cl)ccc2F)cc1)C[C@@H](Cn1nccn1)C(=O)O)c1cnn[nH]1 [Example 61b, (2S,4S)-5-(5′-Chloro-2′-fluorobiphenyl-4-yl)-4-[(3H-[1,2,3]triazole-4-carbonyl)amino]-2-[1,2,3]triazol-2-ylmethylpentanoic Acid]
17 | ≤ 1 nM | CN(C)CCOC[C@H](C[C@@H](Cc1ccc(-c2cc(Cl)ccc2F)cc1)NC(=O)c1c[nH]nn1)C(=O)O [Example 100, (2S,4S)-5-(5′-Chloro-2′-fluorobiphenyl-4-yl)-2-(2-dimethylamino-ethoxymethyl)-4-[(1H-[1,2,3]triazole-4-carbonyl)amino]pentanoic Acid]
18 | 1.26 to 3.16 nM | CC(C)c1coc(C(=O)N[C@H](Cc2ccc(-c3cc(Cl)ccc3F)cc2)C[C@@H](NC(=O)[C@H](C)N)C(=O)O)n1 [Example 36-1, (2R,4R)-2-((S)-2-Aminopropionylamino)-5-(5′-chloro-2′-fluorobiphenyl-4-yl)-4-[(4-isopropyloxazole-2-carbonyl)amino]pentanoic Acid]
19 | 1.26 to 3.16 nM | NC[C@H](C[C@@H](Cc1ccc(-c2ccccc2)cc1)NC(=O)c1c[nH]nn1)C(=O)O [Example 22, (2S,4S)-2-Aminomethyl-5-biphenyl-4-yl-4-[(1H-[1,2,3]triazole-4-carbonyl)amino]pentanoic Acid]

Row | Structure (SMILES) | Ki
20 | Cc1cc(C(=O)N[C@H](Cc2ccc(-c3cc(Cl)ccc3F)cc2)C[C@@H](CN)C(=O)O)sn1 [Example 21-6, (2S,4S)-2-Aminomethyl-5-(5′-chloro-2′-fluorobiphenyl-4-yl)-4-[(3-methylisothiazole-5-carbonyl)amino]pentanoic acid] | 1.26 to 3.16 nM
21 | COC(=O)N[C@H](C(=O)N[C@H](C[C@@H](Cc1ccc(-c2cc(Cl)ccc2F)cc1)NC(=O)c1c[nH]nn1)C(=O)O)C(C)C [Example 46, (2R,4R)-5-(5′-Chloro-2′-fluorobiphenyl-4-yl)-2-((S)-2-methoxycarbonylamino-3-methylbutyrylamino)-4-[(1H-[1,2,3]triazole-4-carbonyl)amino]pentanoic Acid] | 1.26 to 3.16 nM

Same assay, conditions: recombinant human NEP, fluorogenic peptide substrate, 37° C.

Row | pKi | Structure (SMILES)
22 | ≧9.0 | COC[C@H](C[C@@H](Cc1ccc(-c2cccc(Cl)c2)cc1)NC(=O)c1cc(O)no1)C(=O)O [Example 4-2, (2S,4S)-5-(3′-Chlorobiphenyl-4-yl)-4-[(3-hydroxy-isoxazole-5-carbonyl)amino]-2-methoxymethylpentanoic acid]
23 | ≧9.0 | NCC(=O)N[C@H](C[C@@H](Cc1ccc(-c2cc(Cl)ccc2F)cc1)NC(=O)c1c[nH]nn1)C(=O)O [Example 33, (2R,4R)-2-(2-Aminoacetylamino)-5-(5′-chloro-2′-fluoro-biphenyl-4-yl)-4-[(1H-[1,2,3]triazole-4-carbonyl)amino]pentanoic Acid]
24 | ≧9.0 | C[C@H](N)C(=O)N[C@H](C[C@@H](Cc1ccc(-c2cc(Cl)ccc2F)cc1)NC(=O)c1cnn[nH]1)C(=O)O [Example 37-1, (2R,4R)-2-((S)-2-Aminopropionylamino)-5-(5′-chloro-2′-fluorobiphenyl-4-yl)-4-[(3H-[1,2,3]triazole-4-carbonyl)amino]pentanoic acid]
25 | ≧9.0 | COC(=O)N[C@H](C[C@@H](Cc1ccc(-c2cc(Cl)ccc2F)cc1)NC(=O)c1c[nH]nn1)C(=O)O [Example 30-1, (2R,4R)-5-(5′-Chloro-2′-fluoro-biphenyl-4-yl)-2-methoxycarbonylamino-4-[(1H-[1,2,3]triazole-4-carbonyl)amino]pentanoic acid]
26 | ≧9.0 | N[C@H](C[C@@H](Cc1ccc(-c2cc(Cl)ccc2F)cc1)NC(=O)c1cc(-c2cnccn2)n[nH]1)C(=O)O [Example 16-33, (2R,4R)-2-Amino-5-(5′-chloro-2′-fluorobiphenyl-4-yl)-4-[(5-pyrazin-2-yl-2H-pyrazole-3-carbonyl)amino]pentanoic acid]
27 | ≧9.0 | NC(=O)C[C@H](C[C@@H](Cc1ccc(-c2ccccc2)cc1)NC(=O)c1cnn[nH]1)C(=O)O [Example 53, (2S,4S)-5-Biphenyl-4-yl-2-carbamoylmethyl-4-[(3H-[1,2,3]triazole-4-carbonyl)amino]pentanoic Acid]
28 | ≧9.0 | COC[C@H](C[C@@H](Cc1ccc(-c2cc(Cl)ccc2F)cc1)NC(=O)c1ncco1)C(=O)O [Example 2-7, (2S,4S)-5-(5′-Chloro-2′-fluorobiphenyl-4-yl)-2-methoxymethyl-4-[(oxazole-2-carbonyl)amino]pentanoic acid]
29 | ≧9.0 | N[C@H](C[C@@H](Cc1ccc(-c2cc(Cl)ccc2F)cc1)NC(=O)c1noc(=O)[nH]1)C(=O)O [Example 16-16, (2R,4R)-2-Amino-5-(5′-chloro-2′-fluorobiphenyl-4-yl)-4-[(5-oxo-4,5-dihydro-[1,2,4]oxadiazole-3-carbonyl)amino]pentanoic acid]
30 | ≧9.0 | N[C@H](C[C@@H](Cc1ccc(-c2cc(Cl)ccc2F)cc1)NC(=O)c1coc(=O)[nH]1)C(=O)O [Example 16-31, (2R,4R)-2-Amino-5-(5′-chloro-2′-fluorobiphenyl-4-yl)-4-[(2-oxo-2,3-dihydro-oxazole-4-carbonyl)amino]pentanoic acid]
